Among the data in ChEMBL document CHEMBL1147258, “Cytochalasins Z4, Z5, and Z6, three new 24-Oxa[14]cytochalasans produced by Phoma exigua var. heteromorpha” (J Nat Prod, 2003) are Activity, mortality and inhibition values, retold here.

Each structure is given as a SMILES string. Active and inactive are the calls of the source. The calls are words filed in the database; no cut-off is given here.

Data set [1] relates to Artemia. As to the kind of experiment: (§1) Toxicity in brine shrimp assessed as mortality of larvae at 100 uM. The format is organism-based. The note with it: in vivo, 100 µM.
Data set [2] relates to Solanum lycopersicum. As to the kind of experiment: Herbicidal activity against tomato seedlings assessed as inhibition of rootlet elongation at 100 uM. The format is functional.
The nature of data set [3]: as §1. The format is organism-based. Particulars: artemia, in vivo; read-out: Activity.

As to `C=C1[C@@H](C)[C@H]2[C@H](Cc3ccccc3O)NC(=O)[C@]23OC(=O)/C=C/[C@H](O)CCC[C@@H](C)C/C=C/[C@H]3[C@@H]1O` [CYTOCHALASIN Z4], the Activity result in data set [1] is “Non-toxic”. Further, the outcome in data set [2] was inactive.
For the molecule `C=C1[C@@H](C)[C@H]2[C@H](Cc3ccc(O)cc3)NC(=O)[C@]23OC(=O)/C=C/[C@H](O)CCC[C@@H](C)C/C=C/[C@H]3[C@@H]1O` [CYTOCHALASIN Z5], in data set [3], the mortality at 100 µM is 21%. Besides, the result in data set [2] was inactive.
In the case of `C[C@H]1C/C=C/[C@H]2[C@@H]3O[C@]3(C)[C@@H](C)[C@H]3[C@H](Cc4ccccc4)NC(=O)[C@]32OC(=O)/C=C/CC(O)CC1` (stereo partly specified) [CYTOCHALASIN Z6], in data set [1], the Activity result is reported as “Non-toxic”. Besides, the inhibition (usually the relative decrease from the control value, in per cent) at 100 µM in data set [2] was determined as 30%.
